Laboratory results taken from patent US20240408064A1, “RAS INHIBITORS, COMPOSITIONS AND METHODS OF USE THEREOF” (GENETOLEAD INC., priority 2021, published 2024).

How the values were obtained:
HRas^G12V [1] = biological target: T1, HRas^G12V (Homo sapiens (Human), UniProt P01112, G12V); experiment: 19F T2-CPMG NMR score; format: binding
Procedure: (§1) All NMR experiments were collected using 3 mm NMR tubes on a 600 MHz Bruker Avance III spectrometer equipped with a QCI helium cryoprobe and a SampleJet sample changer. The buffer used for NMR experiments was 25 mM sodium phosphate pH 7.4, 150 mM NaCl, 5 mM MgCl2, 1 mM TCEP-d16, 10% D2O. Data were processed using Bruker TopSpin.
(§2) Since the fragment library was curated using phosphate buffer, 25 mM sodium phosphate pH 7.4, 150 mM NaCl, 5 mM MgCl2, 1 mM TCEP-d16, 10% D2O Fresh TCEP was used for experiments. Screening was performed using ^1H-decoupled 1D ^19F experiment Bruker experiment (zgfhigqn.2) with 64 scans and a relaxation delay of 5 seconds. 50 μM HRas^G12V and 240 μM of each fragment in pools (mixtures) were used.
(§3) Hit confirmation was performed using the same ^19F experiment as the screen. Ligand-observed 1D ^1H, protein-observed 1D ^1H, ^1H T2-CPMG as well as Saturation Transfer Difference (STD) experiments were also run on the same samples. Ligand-observed 1D ^1H was run using the standard Bruker sequence with excitation sculpting (zgesgp) with a relaxation delay of 10 seconds and 16 scans per spectrum. Protein-observed 1D ^1H was performed using the same sequence with a relaxation delay of 1 second and 256 scans in order to increase the signal-to-noise of the protein resonances, while keeping the experimental time relatively short. The ^1H T2-CPMG experiment employed a modified version of the Bruker 1D ^1H zgesgp experiment with the addition of a CPMG pulse train after the first 90° excitation pulse. Total duration for each spin echo was fixed at 1 ms (τ=500 μs), while the number of echoes in the pulse train was varied according to the total time (T). The number of scans for each spectrum was 4 and eight delay times were run on each sample, ranging from 1 ms to 800 ms.
Because of its power to probe the intrinsically weak interactions (Kd) between targets and low-molecular weight fragments, NMR fragment-based lead discovery (FBLD) is a very useful biophysical method in early stage drug discovery, especially for challenging target proteins; including those with shallow binding pockets. Since FBLD screens are performed using low-molecular weight compounds (fragments) with lower structural complexity, the same chemical space can be covered using a smaller number of drug-like fragments versus use of large libraries of higher-molecular weight lead-like compounds as in high throughput screening (HTS) campaigns. Therefore, FBLD has a much higher hit rate than HTS using only several hundred to several thousand compounds in comparison with approximately 1 million compounds for HTS. Also, the small size of the compounds screened in FBLD means a better chance to fully match the interactions with small or transient pockets within the target protein, where these less tractable pockets cannot be accessed with standard classical HTS methods. […] We expect this methodology to be more advantageous than classical HTS methods for expediting the time from hit to lead (H2L) and allows for rapid access to high quality leads with lower attrition rates in subsequent lead optimization (LO) campaigns toward pre-clinical candidate selection. FBLD screening by NMR involves a “consensus binding” approach where several distinct NMR experiments (DLB, STD, CPMG) are applied along with a free-state aggregation detection method (T2-CPMG) to rank the compounds for their affinity to the receptor (HRAS in this case) whilst simultaneously monitoring the solution behavior and critical quality attributes of each compound. The latter helps to eliminate artifact binders which are highly problematic. We performed a fluorine screen involving 461 compounds that were derived from a highly curated fragment library. Moreover, two-dimensional ^15N HSQC NMR was also used to validate ligand-binding sites on the target protein. […]

HRas^G12V [2] = biological target: T1, HRas^G12V; experiment: 19F DLB (ligand-observed 19F NMR) score; format: binding; design: scale not given here
Procedure: as §1, §2
as §3, with “ms. […]” for “ms.”

T1 sequence (P01112 1-166 G12V): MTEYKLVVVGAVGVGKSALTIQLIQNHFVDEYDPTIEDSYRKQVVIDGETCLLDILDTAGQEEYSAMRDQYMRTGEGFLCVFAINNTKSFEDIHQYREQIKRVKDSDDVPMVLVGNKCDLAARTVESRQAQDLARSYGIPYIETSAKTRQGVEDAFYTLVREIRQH

Row | SMILES | 19F T2-CPMG Score (HRas^G12V [1]) | 19F DLB Score (HRas^G12V [2])
1 | O=C(Cc1c[nH]c2cc(F)ccc12)N1CCO[C@@H](CO)C1 [Compound 10147, (R)-2-(6-fluoro-1H-indol-3-yl)-1-(2-(hydroxymethyl)morpholino) ethan-1-one] | 19.87 | 2.3
2 | CCOC(=O)CC1CCN(C(=O)Cc2c[nH]c3cc(F)ccc23)CC1 [Compound 10130] | 12.1 | 2.09
3 | O=C(Cc1c[nH]c2cc(F)ccc12)N1CCCC(O)C1 (stereo not drawn) [Compound 10120] | 13.94 | 2.34
4 | O=C(C1CCNCC1)N1CCC(c2c[nH]c3cc(F)ccc23)CC1 [Compound 11047] | 22.81 | 2.79
5 | N#CC(C(=O)N[C@@H](Cc1ccc(O)cc1)C(=O)O)c1c[nH]c2cc(F)ccc12 (stereo partly drawn) [Compound 11031] | 38.39 | 1.97
6 | O=C(CN1CCC1)c1c[nH]c2cc(F)ccc12 [Compound 10085, 2-(azetidin-1-yl)-1-(6-fluoro-1H-indol-3-yl) ethan-1-one] | 21.45 | 2.43
7 | CC(=O)N[C@@H]1CCN(C(=O)Cc2c[nH]c3cc(F)ccc23)C1 [Compound 10091] | 7.83 | 1.93
8 | COCCOC1CN(C(=O)Cc2c[nH]c3cc(F)ccc23)C1 [Compound 10103, 2-(6-fluoro-1H-indol-3-yl)-1-(3-(2-methoxyethoxy)azetidin-1-yl) ethan-1-one] | 7.82 | 1.62
9 | COC(C)C1CN(C(=O)Cc2c[nH]c3cc(F)ccc23)C1 (stereo not drawn) [Compound 10124, 2-(6-fluoro-1H-indol-3-yl)-1-(3-(1-methoxyethyl)azetidin-1-yl)ethan-1-one] | 12.49 | 1.82
10 | CC(C)N1CCN(C(=O)Cc2c[nH]c3cc(F)ccc23)CC1 [Compound 10068] | 10.72 | 2.43
11 | COCC1(C)CN(C(=O)Cc2c[nH]c3cc(F)ccc23)C1 [Compound 10134, 2-(6-fluoro-1H-indol-3-yl)-1-(3-(methoxymethyl)-3-methylazetidin-1-yl)ethan-1-one] | 13.32 | 2.1
12 | O=C(C1CC1)C1CN(C(=O)Cc2c[nH]c3cc(F)ccc23)C1 [Compound 10115, 1-(3-(cyclopropanecarbonyl)azetidin-1-yl)-2-(6-fluoro-1H-indol-3-yl)ethan-1-one] | 12.42 | 1.89
13 | O=C(C1CCCNC1)N1CCC(c2c[nH]c3cc(F)ccc23)C1 (stereo not drawn) [Compound 11037] | 16.77 | 2.12
14 | O=C(C1CCC(O)CC1)N1CCC(c2c[nH]c3cc(F)ccc23)CC1 (stereo not drawn) [Compound 11027] | 13.23 | 2.48
15 | O=C(Cc1c[nH]c2cc(F)ccc12)N1CCO[C@H](CO)C1 [Compound 10148] | 12.46 | 1.87
16 | O=C(Cc1c[nH]c2cc(F)ccc12)Nc1cccnc1 [Compound 10058] | 21.6 | 3.07
17 | O=C(c1ccccc1)N1CCC(c2c[nH]c3cc(F)ccc23)C1 (stereo not drawn) [Compound 11021] | 39.09 | 3.35
18 | O=C(c1ccc(F)cc1F)N1CCC(c2c[nH]c3cc(F)ccc23)C1 (stereo not drawn) [Compound 11018] | 9.96 | 2.51
19 | CC(=O)Nc1cccc(C(=O)N2CCC(c3c[nH]c4cc(F)ccc34)C2)c1 (stereo not drawn) [Compound 11023] | 16.39 | 3.07
20 | O=C(O)CC(c1ccccc1F)c1c[nH]c2cc(F)ccc12 (stereo not drawn) [Compound 11044] | 16.24 | 2.77

Row | SMILES | 19F T2-CPMG Score (HRas^G12V [1]) | 19F DLB Score (HRas^G12V [2])
21 | COC(=O)[C@@H]1CN(C)CCN1C(=O)Cc1c[nH]c2cc(F)ccc12 [Compound 10167] | 5.07 | 3.62
22 | CC(=O)N1CCC(C(=O)N2CCC(c3c[nH]c4cc(F)ccc34)CC2)CC1 [Compound 11029] | 10.24 | 1.93
23 | O=C(O)[C@H]1CCCCN1C(=O)Cc1c[nH]c2cc(F)ccc12 [Compound 10125] | 10.15 | 1.56
24 | CC(C)COC1CCN(C(=O)Cc2c[nH]c3cc(F)ccc23)CC1 [Compound 10111, 2-(6-fluoro-1H-indol-3-yl)-1-(4-isobutoxypiperidin-1-yl) ethan-1-one] | 12.96 | 2.23
25 | COc1cccc(NC(=O)Cc2c[nH]c3cc(F)ccc23)c1 [Compound 10030] | 18.47 | 3.05
26 | COCC1CN(C(=O)Cc2c[nH]c3cc(F)ccc23)C1 [Compound 10075] | 7.09 | 1.77
27 | COC[C@H]1CN(C(=O)Cc2c[nH]c3cc(F)ccc23)CCO1 [Compound 10154, (R)-2-(6-fluoro-1H-indol-3-yl)-1-(2-(methoxymethyl)morpholino)ethan-1-one] | 8.16 | 1.62
28 | Fc1ccc2c(CNc3ccccc3)c[nH]c2c1 [Compound 10052, N-((6-fluoro-1H-indol-3-yl)methyl) aniline] | 25.51 | 4.75
29 | CN1CCN(C(=O)Cc2c[nH]c3cc(F)ccc23)CC1 [Compound 10065] | 22.6 | 2.88
30 | CC(C)(C)OC(=O)N1CCC(C(=O)N2CCC(c3c[nH]c4cc(F)ccc34)CC2)C1 (stereo not drawn) [Compound 11017] | 16.89 | 1.86
31 | COC(=O)C1CCN1C(=O)Cc1c[nH]c2cc(F)ccc12 (stereo not drawn) [Compound 10088, Methyl 1-(2-(6-fluoro-1H-indol-3-yl)acetyl)azetidine-2-carboxylate] | 11.14 | 2.24
32 | CC(C)C(=O)C1CN(C(=O)Cc2c[nH]c3cc(F)ccc23)C1 [Compound 10116] | 13.95 | 1.88
33 | O=C1CCCN(C(=O)Cc2c[nH]c3cc(F)ccc23)C1 [Compound 10109] | 15.4 | 3.45
34 | CN(C)Cc1ccc(NC(=O)C(C#N)c2c[nH]c3cc(F)ccc23)cc1 (stereo not drawn) [Compound 11030] | 21.82 | 2.9
35 | CN1CCN(C(=O)Cc2c[nH]c3cc(F)ccc23)CC1=O [Compound 10146] | 9.75 | 1.56
36 | O=C(O)C1CCN(C(=O)Cc2c[nH]c3cc(F)ccc23)CC1 [Compound 10129] | 3.92 | 1.27
37 | CN1CCN(CCNC(=O)Cc2c[nH]c3cc(F)ccc23)CC1 [Compound 10020] | 14.34 | 1.62
38 | CC1CN(C(=O)C(CC(=O)O)c2c[nH]c3cc(F)ccc23)C1 (stereo not drawn) [Compound 11034] | 39.41 | 1.7
39 | Fc1ccc2c(C3CCNCC3)c[nH]c2c1 [Compound 11012] | 13.63 | 2.58
